Measurements from patent publication US7341750B2, “Compound isolated from Ginkgo biloba bark, isolation method thereof and antiplatelet composition containing the same” (Candleflower Co., Ltd., priority 2006, dated 2008).
pIC50: −log10 of the molar value. Where two headings read alike, the source gives them in different places.

How the values were obtained:
Type in all cases: cell-based
[1] = test system: ADP-induced platelet aggregation; experiment: ADP-stimulated platelet aggregation in concentrated human platelet-rich plasma (aggregometer); conditions: aggregation factor ADP, human concentrated PRP, —: no effect
Description: (§1) To measure the activity against collagen-stimulated platelet aggregation of the novel compound identified from the Ginkgo biloba bark, concentrated human platelet-rich-plasma (PRP) was first prepared. The PRP used in the present invention was obtained by collecting blood from volunteers in Hallym University Medical Center, centrifuging the blood at 1,000 rpm and room temperature for 10 minutes to collect pure supernatant PRP and centrifuging the supernatant PRP at 3,000 rpm and room temperature for 10 minutes. The obtained PRP was separated into platelet-poor plasma (PPP) and platelets (PLTs). Then, concentrated PRP was prepared in the following manner. That is, platelets (PLTs) were suspended in a suitable amount of the supernatant PPP and measured for absorbance at 660 nm using a UV/visible spectrophotometer. Based on the measured absorbance, the suspension was further diluted with an excess of PPP to prepare concentrated PRP containing 5×10^8 platelets/ml. Herein, an OD value of 1.1 at 660 nm means 1×10^8 PLTs. A washing buffer used in the present invention was a pH 6.5 buffer containing 129 mM NaCl, 10.9 mM sodium citrate dihydrate, 8.9 mM NaHCO3, 1 mg/ml glucose, 10 mM tris-hydroxymethylaminomethane, 2.8 mM KCl, 0.8 mM KH2PO4 and 2 mM EDTA. Also, a suspension buffer used in this test example was a pH 6.9 buffer, which was the same as said washing buffer, except that it contained no EDTA. The platelet aggregation inhibitory effect of the novel compound was examined using the prepared concentrated PRP in the following manner. First, the concentrated PRP was used to make 500 μl of an in vitro reaction system. For use as a control group, the concentrated PRP was stabilized at 37° C. for 3 minutes and treated with collagen (Chrono-LogCo.) as a stimulating agent at a concentration of 10 μg/ml, and the aggregation of platelets in the reaction system was induced for 5 minutes. Meanwhile, the same reaction system as described above was treated with the novel compound, was allowed to react with the novel compound for 3 minutes, was stimulated with collagen for 6 minutes according to the same method as described above so as to induce platelet aggregation, and then was measured for aggregated platelets. The aggregation of platelets was measured with a change in light transmission using an aggregometer (Chrono-Log Co.) at 37° C. The measurement results are shown in Table 1 below and FIGS. 6, 7 and 8. Table 1 summarizes the antiplatelet aggregation activities of aspirin, the novel compound and ginkgolide A and B against platelet aggregation factors, including ADP, collagen and arachidonic acid. […]

[2] = test system: collagen-stimulated platelet aggregation; experiment: Collagen-stimulated platelet aggregation in concentrated human platelet-rich plasma (aggregometer); conditions: human concentrated PRP; for pIC50: aggregation factor collagen 10 μg/ml, 37° C., read-out: IC50 antiplatelet aggregation activity, Collagen
Description: To measure the activity against collagen-stimulated platelet aggregation of the novel compound identified from the Ginkgo biloba bark, concentrated human platelet-rich-plasma (PRP) was first prepared. The PRP used in the present invention was obtained by collecting blood from volunteers in Hallym University Medical Center, centrifuging the blood at 1,000 rpm and room temperature for 10 minutes to collect pure supernatant PRP and centrifuging the supernatant PRP at 3,000 rpm and room temperature for 10 minutes. The obtained PRP was separated into platelet-poor plasma (PPP) and platelets (PLTs). Then, concentrated PRP was prepared in the following manner. That is, platelets (PLTs) were suspended in a suitable amount of the supernatant PPP and measured for absorbance at 660 nm using a UV/visible spectrophotometer. Based on the measured absorbance, the suspension was further diluted with an excess of PPP to prepare concentrated PRP containing 5×10^8 platelets/ml. Herein, an OD value of 1.1 at 660 nm means 1×10^8 PLTs. A washing buffer used in the present invention was a pH 6.5 buffer containing 129 mM NaCl, 10.9 mM sodium citrate dihydrate, 8.9 mM NaHCO3, 1 mg/ml glucose, 10 mM tris-hydroxymethylaminomethane, 2.8 mM KCl, 0.8 mM KH2PO4 and 2 mM EDTA. Also, a suspension buffer used in this test example was a pH 6.9 buffer, which was the same as said washing buffer, except that it contained no EDTA. The platelet aggregation inhibitory effect of the novel compound was examined using the prepared concentrated PRP in the following manner. First, the concentrated PRP was used to make 500 μl of an in vitro reaction system. For use as a control group, the concentrated PRP was stabilized at 37° C. for 3 minutes and treated with collagen (Chrono-LogCo.) as a stimulating agent at a concentration of 10 μg/ml, and the aggregation of platelets in the reaction system was induced for 5 minutes. Meanwhile, the same reaction system as described above was treated with the novel compound, was allowed to react with the novel compound for 3 minutes, was stimulated with collagen for 6 minutes according to the same method as described above so as to induce platelet aggregation, and then was measured for aggregated platelets. The aggregation of platelets was measured with a change in light transmission using an aggregometer (Chrono-Log Co.) at 37° C. The measurement results are shown in Table 1 below and FIGS. 6, 7 and 8. Table 1 summarizes the antiplatelet aggregation activities of aspirin, the novel compound and ginkgolide A and B against platelet aggregation factors, including ADP, collagen and arachidonic acid. […] In the case of the group treated with the novel compound, when arachidonic acid was used as the aggregation factor, the aggregation of platelets occurred only upon stimulation with 1,000 μM (i.e., 1 mM) or higher concentration of arachidonic acid.

[3] = test system: arachidonic acid-stimulated platelet aggregation; experiment: Arachidonic acid-stimulated platelet aggregation in concentrated human platelet-rich plasma (aggregometer); conditions: for arachidonic acid-stimulated platelet aggregation in treated groups: groups treated with the compound
Description: as §1

[4] = arachidonic acid as aggregation factor

Compound | pIC50 ([1]; Platelet, read-out: IC50 antiplatelet aggregation activity, ADP) | pIC50 ([2]; Platelet) | inhibitory activity on collagen-stimulated platelet aggregation (FIGS. 6-8) [2] | IC50 antiplatelet aggregation activity, ADP [1] | pIC50 [2] | arachidonic acid-stimulated platelet aggregation in treated groups [3, 4] | pIC50 ([3]; Platelet, aggregation factor arachidonic acid, human concentrated PRP, —: no effect, read-out: IC50 antiplatelet aggregation activity, AA) | concentration of arachidonic acid at which aggregation of platelets occurred in the treated group ([3]; arachidonic acid as aggregation factor, group treated with the compound)
CC(=O)Oc1ccccc1C(=O)O [Aspirin] | 3.50 | 3.69 | inhibited platelet aggregation in a concentration-dependent manner | – | – | – | – | –
C[C@@H]1C(=O)O[C@H]2C[C@@]34[C@H]5C[C@@H](C(C)(C)C)[C@]36[C@@H](OC(=O)[C@@H]6O)O[C@@]4(C(=O)O5)[C@]21O [Gingkolide A] | – | – | inhibited collagen-stimulated platelet aggregation in a concentration-dependent manner | did not show an effect | 3.32 | did not occur | – | –
COc1cc(-c2oc3cc(OC)c(CCCO)cc3c2C=O)ccc1O [Novel compound, 5-(3-hydroxyprophyl)-6-methoxy-2-(3′-methoxy-4′-hydroxyphenyl)-3-benzo[b]furancarbaldehyde] | – | 3.17 | inhibited collagen-stimulated platelet aggregation in a concentration-dependent manner | did not show an effect | – | – | < 3.00 | ≥ 1,000 μM
C[C@@H]1C(=O)O[C@H]2[C@@H](O)[C@@]34[C@H]5C[C@@H](C(C)(C)C)[C@]36[C@@H](OC(=O)[C@@H]6O)O[C@@]4(C(=O)O5)[C@@]12O [Gingkolide B] | – | – | inhibited collagen-stimulated platelet aggregation in a concentration-dependent manner | did not show an effect | 3.32 | did not occur | – | –
